In patent US6911430B2, “Compositions and methods for treating ileus” (VipoGen, LLC, priority 2003, dated 2005):
Ends that are not written are not given here.

Tested on: Male Wistar rats
Assay: Intestinal transit of Evans blue after laparotomy and manipulation of the intestines (postoperative ileus model)
Assay type: in vivo, rat
Conditions: single peptide approx. 150 μg per kg i.v. tail vein bolus 1 minute before surgery, skin incision, 20 minute transit period, mean
Procedure: Male Wistar rats are commonly used to study the mechanisms that regulate gastrointestinal function by several laboratories across the United States and the world. This model is well characterized experimentally and has the added advantage of providing results in a short time frame, limiting the animal's distress.
Two hours prior to start of surgery, the required amount of peptide was measured to the nearest […] and placed into 0.5 ml saline. The suspension was then vortexed for 1 minute and then incubated at room temperature for one hour after. The solution was kept refrigerated until 30 minutes before the onset of surgery. The solution was allowed to warm to room temperature for 30 minutes prior to the surgery. Following this warming period, the solution was placed into a 1 cc insulin syringe for tail vein injection 1 minute prior to surgery.
Male Wistar rats (150-250 g) were fasted for 48 hours with free access to water. This fast was necessary to empty the gastrointestinal tract so that the Evans Blue introduced after the surgery could be accurately tracked. The rats were divided into groups in a randomized way. The randomized groups were then given isoflorane anesthesia, followed by clearing of the abdominal area with 10% antibacterial iodine solution and alcohol and shaving prior to surgery. Isoflorane was administered continuously (3-5%) using a vaporizer. […] Diethyl ether can also be used for anesthesia.
Thereafter, the rats received an i.v. injection (VIP receptor antagonists, PACAP receptor antagonists, or combination thereof were delivered in saline) in the tail vein of the appropriate drug or control for its group one minute before the operation. The peptides included VIP (10-28) and PACAP (6-38). The dosage amount of each peptide administered was approximately 150 μg per kg body weight. For the combination treatment a ratio of 1:1 of a PACAP receptor antagonist to VIP receptor antagonists was used, the total peptide amount being approximately 300 μg per kg body weight. The peptide dosages were consistent animal to animal throughout the study and were administered by bolus injections.
All groups underwent a laparotomy consisting of the incision of the abdominal skin, abdominal muscle layers and peritoneum. The laparatomy was followed by evisceration and manipulation of the small intestine and the caecum. In these experiments, the caecum and small intestine were gently pulled out of the abdominal cavity, unfurled like a fan and exposed on two sterile gauzes covering the abdomen of the rat. […]
Twenty minutes later, the rats were euthanized by an overdose pentobarbital (150 mg/kg i.v. tail vein) and the intestinal transit was measured from the pylorus to the most distal point of the migration of Evans blue and expressed in cm.

Row | Substance | % of the intestinal length traversed by Evan's Blue [%] | intestinal motility: distance Evan's Blue traveled through the intestines [cm]
1 | VIP(10-28) (YTRLRKQMAVKKYLNSILN; listed as Homo sapiens) [VIP-RA] | 31 | 26
2 | PACAP(6-38) (FTDSYSRYRKQMAVKKYLAAVLGKRYKQRVKNK; ends and bridges not checked; listed as Homo sapiens) [PACAP-RA] | 32 | 23
